# According to patent publication US9957271B2, “Substituted bicyclic aza-heterocycles and analogues as sirtuin modulators” (GlaxoSmithKline, LLC, priority 2012, dated 2018):
# Experiments:
# SIRT1 [1] = target: T1, SIRT1 (Homo sapiens, UniProt Q96EB6); assay: TAMRA based mass spectrometry assay of SIRT1 activity; format: biochemical; conditions: for Emax: read-out: TAMRA % Fold Act
# T1 sequence (Q96EB6 1-747): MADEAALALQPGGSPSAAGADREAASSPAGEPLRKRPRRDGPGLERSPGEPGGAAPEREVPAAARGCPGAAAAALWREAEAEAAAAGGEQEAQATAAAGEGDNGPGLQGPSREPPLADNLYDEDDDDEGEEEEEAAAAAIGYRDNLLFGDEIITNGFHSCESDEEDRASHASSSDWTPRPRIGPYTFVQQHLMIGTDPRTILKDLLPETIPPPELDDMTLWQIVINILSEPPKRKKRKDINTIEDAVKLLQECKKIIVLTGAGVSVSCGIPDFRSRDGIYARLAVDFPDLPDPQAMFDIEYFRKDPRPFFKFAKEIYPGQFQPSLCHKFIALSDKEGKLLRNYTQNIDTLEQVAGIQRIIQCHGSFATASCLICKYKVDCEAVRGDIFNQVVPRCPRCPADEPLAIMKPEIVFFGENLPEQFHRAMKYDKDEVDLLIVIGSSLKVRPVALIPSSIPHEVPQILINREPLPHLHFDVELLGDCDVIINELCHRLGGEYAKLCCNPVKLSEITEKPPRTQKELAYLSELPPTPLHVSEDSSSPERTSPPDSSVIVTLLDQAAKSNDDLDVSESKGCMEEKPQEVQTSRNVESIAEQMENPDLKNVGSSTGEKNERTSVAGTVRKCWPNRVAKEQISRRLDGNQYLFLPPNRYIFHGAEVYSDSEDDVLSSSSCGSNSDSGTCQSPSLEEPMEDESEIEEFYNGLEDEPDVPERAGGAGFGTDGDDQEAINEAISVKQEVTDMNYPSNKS
# Summary of the method: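 Recombinant N-terminal His-tagged human SIRT1 (10 nM, E. coli) incubated 25 min at 25 °C with 0.5 μM 5TMR-labelled p53-derived acetyl-peptide and 120 μM βNAD+ in Tris-acetate pH 8 buffer with DTT and 0.05% BSA, compound at varying concentrations. Stopped with formic acid; deacetylated peptide or OAADPR measured by mass spectrometry relative to DMSO controls.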
# SIRT1 [2] = target: T1, SIRT1; assay: Trp mass spectrometry assay of SIRT1 activity; format: biochemical; conditions: for Emax: read-out: Trp % Fold Act
# Summary of the method: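 His-tagged SIRT1 expressed in E. coli BL21(DE3), 10 nM, incubated 25 min at 25° C. with 0.5 μM Ac-RHKK(Ac)W-NH2 peptide and 120 μM βNAD+ in 50 mM HEPES pH 7.5, […], 1 mM DTT, 0.05% BSA; formic acid stop. OAADPR or deacetylated peptide measured by mass spectrometry; EC1.5 and percent maximum activation versus DMSO control.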
# [3] = TAMRA peptide substrate, concentration giving 150% activation of SIRT1
# [4] = TAMRA peptide substrate, percent maximum fold activation
# [5] = Trp peptide substrate, concentration giving 150% activation of SIRT1
# [6] = Trp peptide substrate, percent maximum fold activation
# [7] = concentration of test compound giving 150% activation of SIRT1, TAMRA peptide substrate
# [8] = percent maximum fold activation of SIRT1, TAMRA peptide substrate
# [9] = concentration of test compound giving 150% activation of SIRT1, Trp peptide substrate
# [10] = percent maximum fold activation of SIRT1, Trp peptide substrate
# [11] = TAMRA assay, concentration giving 150% activation of SIRT1
# [12] = TAMRA assay, percent maximum fold activation
# [13] = Trp assay, concentration giving 150% activation of SIRT1
# [14] = Trp assay, percent maximum fold activation
TAMRA EC1.5 (μM) (SIRT1 [1]; [7]),Emax (SIRT1 [1]; [8]) [%],Trp EC1.5 (μM) (SIRT1 [2]; [9]),Emax (SIRT1 [2]; [10]) [%],TAMRA EC1.5 (μM) (SIRT1 [1]; [11]),Emax (SIRT1 [1]; [12]) [%],Trp EC1.5 (μM) (SIRT1 [2]; [13]),Emax (SIRT1 [2]; [14]) [%],Compound,other results
,,,,,,,,Cc1cc(NC(=O)c2cnc3ccc(-c4ccccc4C(F)(F)F)nn23)cc(OC[C@@H](O)CO)n1 [Compound 558],TAMRA EC1.5 (SIRT1 [1]; [3]): A (EC1.5<1 μM); Emax (SIRT1 [1]; [4]): ≥ 350%; Trp EC1.5 (SIRT1 [2]; [5]): A (EC1.5<1 μM); Emax (SIRT1 [2]; [6]): ≥ 350%
B (EC1.5 1-25 μM),< 350,B (EC1.5 1-25 μM),< 350,,,,,O=C(Nc1nc(CN2CCOCC2)cs1)c1cnc2ccc(-c3cccc(F)c3)nn12 [Compound 29],
,,,,,,,,Cc1cc(NC(=O)c2c(C)nc3c(C)cc(-c4ccccc4C(F)(F)F)nn23)nc(C)n1 [Compound 475],TAMRA EC1.5 (SIRT1 [1]; [3]): A (EC1.5<1 μM); Emax (SIRT1 [1]; [4]): ≥ 350%; Trp EC1.5 (SIRT1 [2]; [5]): B (EC1.5 1-25 μM); Emax (SIRT1 [2]; [6]): ≥ 350%
,,,,,,,,O=C(Nc1cccc(CN2CCOCC2)n1)c1cnn2ccc(-c3ccccc3OC(F)(F)F)nc12 [Compound 535],TAMRA EC1.5 (SIRT1 [1]; [3]): A (EC1.5<1 μM); Emax (SIRT1 [1]; [4]): ≥ 350%; Trp EC1.5 (SIRT1 [2]; [5]): A (EC1.5<1 μM); Emax (SIRT1 [2]; [6]): ≥ 350%
,,,,B (EC1.5 1-25 μM),< 350,A (EC1.5<1 μM),< 350,Cc1ccc(NC(=O)c2c(C)nc3ccc(-c4cccc(F)c4)nn23)nn1 [Compound 716],
,,,,C (EC1.5>25 μM),< 350,B (EC1.5 1-25 μM),< 350,Cc1cnc(NC(=O)c2cnn3ccc(-c4ccccc4C(F)(F)F)nc23)c(C)n1 [Compound 724],
A (EC1.5<1 μM),≥ 350,A (EC1.5<1 μM),≥ 350,,,,,Cc1cccc(NC(=O)c2cnc3ccc(-c4ccccc4C(F)(F)F)nn23)n1 [Compound 78],
,,,,,,,,Cc1cc(NC(=O)c2cnc3ccc(-c4ccccc4OC(F)(F)F)nn23)cc(C)n1 [Compound 419],TAMRA EC1.5 (SIRT1 [1]; [3]): A (EC1.5<1 μM); Emax (SIRT1 [1]; [4]): ≥ 350%; Trp EC1.5 (SIRT1 [2]; [5]): A (EC1.5<1 μM); Emax (SIRT1 [2]; [6]): ≥ 350%
C (EC1.5>25 μM),< 350,A (EC1.5<1 μM),< 350,,,,,O=C(Nc1cccnc1)c1cnc2ccc(-c3cccc(Cl)c3F)nn12 [Compound 143],
,,,,B (EC1.5 1-25 μM),≥ 350,B (EC1.5 1-25 μM),≥ 350,O=C(Nc1cccnc1)c1cnn2ccc(-c3ccccc3C(F)(F)F)nc12 [Compound 239],
,,,,B (EC1.5 1-25 μM),≥ 350,B (EC1.5 1-25 μM),≥ 350,Cc1cc2ncc(C(=O)Nc3ccccn3)n2nc1-c1ccccc1C(F)(F)F [Compound 224],
,,,,B (EC1.5 1-25 μM),< 350,A (EC1.5<1 μM),< 350,Cc1nc2ccc(-c3cccc(OC[C@H](O)CO)c3)nn2c1C(=O)Nc1cccnn1 [Compound 597],
,,,,A (EC1.5<1 μM),≥ 350,A (EC1.5<1 μM),≥ 350,Cc1nn2ccc(-c3ccccc3C(F)(F)F)nc2c1C(=O)Nc1ccnc(O)c1 [Compound 784],
B (EC1.5 1-25 μM),≥ 350,B (EC1.5 1-25 μM),≥ 350,,,,,Cc1ccc(NC(=O)c2cnc3ccc(-c4ccccc4C(F)(F)F)nn23)cn1 [Compound 98],
B (EC1.5 1-25 μM),< 350,B (EC1.5 1-25 μM),< 350,,,,,O=C(Nc1ccccn1)c1cnc2ccc(-c3ccccc3C(F)F)nn12 [Compound 32],
